Here are results for six molecules from patent publication US20230241196A1, “GONORRHEA SUBUNIT VACCINE” (priority 2020, published 2023).

The subject of one experiment is WT FA1090. The experiment can be described thus: Etest antibiotic susceptibility, WT strain. The experiment is classed as cell-based, Neisseria gonorrhoeae. To be noted: ~22 h, MIC repeated at least twice of three, unit assumed. As to the method:
The henotypes associated with deletion of metQ were explored. […] It was first examined whether complete elimination of MetQ affects cell envelope homeostasis by exposing bacteria to seven antibiotics with different mechanisms of action using Etest assays.
(§1) Briefly, non-piliated colonies of each strain were suspended in GCBL to a turbidity equivalent to that of a 0.5 McFarland standard and spread on 150 mm tissue culture dishes filled with 50 mL GCB to a thickness of 4 mm. Etest strips were placed on the agar surface and plates were cultured for ~22 h, at which point the MICs were determined. Sensitivity assessments were performed three times, and MIC values that repeated at least twice are reported.

Experiment [1] deals with isogenic knockout ΔmetQ (FA1090). The experiment can be described thus: Etest antibiotic susceptibility, ΔmetQ knockout. The experiment is classed as cell-based, Neisseria gonorrhoeae. The note with it: ~22 h, MIC repeated at least twice of three, unit assumed.
Description: (§2) Prokaryotic lipoproteins play versatile functions ranging from cell envelope stability to nutrient acquisition, substrate binding for ABC transporter systems, modulation of the host immune system, signal transduction, and virulence (Kovacs-Simon et al.Infect Immun 79, 548-561 (2011); Hayashi and Wu, PLoS pathogens 14, e1007081 (2018)). […] The henotypes associated with deletion of metQ were explored. A null mutant in ngo2139 ΔmetQ) and its complemented mutant ΔmetQ/Plac::metQ in Ng FA1090 were constructed (Zielke et al., Mol Cell Proteomics 15, 2338-2355 (2016)). It was first examined whether complete elimination of MetQ affects cell envelope homeostasis by exposing bacteria to seven antibiotics with different mechanisms of action using Etest assays.
as §1, with “Etest antimicrobial sensitivity assessments: The susceptibility of WT FA1090, isogenic knockout ΔmetQ, and complementation strain ΔmetQ/Plac: :metQ to seven antimicrobial compounds was assessed by Etests as previously (Zielke et al., PLoS pathogens 14, e1007081 (2018)), according to manufacturer’s instructions. Briefly,” for “Briefly,”

Experiment [2] has as its system complementation strain ΔmetQ/Plac::metQ (FA1090). The experiment can be described thus: Etest antibiotic susceptibility, complementation strain. The experiment is classed as cell-based, Neisseria gonorrhoeae. To be noted: ~22 h, MIC repeated at least twice of three.
Description: as §2
as §1, with “Etest antimicrobial sensitivity assessments: The susceptibility of WT FA1090, isogenic knockout ΔmetQ, and complementation strain ΔmetQ/Plac: :metQ to seven antimicrobial compounds was assessed by Etests as previously (Zielke et al., PLoS pathogens 14, e1007081 (2018)), according to manufacturer’s instructions. Briefly,” for “Briefly,”

The test system of another experiment is rMetQ. The experiment can be described thus: Pilot immunogenicity: immunoblot of rMetQ with serum of immunized mice. Type of experiment: in vivo, Neisseria gonorrhoeae. To be noted: BALB/c mice, groups of 5; subcutaneous prime, three intranasal boosts. The method, then: First, the immunogenicity of rMetQ was tested by immunizing groups of 5 BALB/c mice with rMetQ, rMetQ-CpG, CpG, or PBS using a subcutaneous prime immunization, followed by a regimen of three intranasal boost doses. A robust, single protein band corresponding to the molecular weight of rMetQ (~30 kDa) was detected in immunoblots with serum derived from mice immunized with rMetQ alone. […] Based on these encouraging results, large-scale immunization/challenge experiments were performed. […] Vaginal washes were collected after the second boost, and antigen-specific antibody titers were assessed in serum collected 14 days after the third boost. […] Bacterial clearance was assessed by enumerating Ng CFUs present in vaginal washes on days 1, 3, 5, and 7 post-infection (FIG. 3C). […]
Densitometry analysis: The expression of MetQ during WT FA1090 infection in female BALB/c mice and intensities of protein bands detected in serum specificity studies were determined by densitometry using FIJI software (Schindelin et al., Nature methods 9, 676-682 (2012)). The amount of MetQ on day 1 post-infection was arbitrarily set to 1 and the protein abundance on days 3 and 5 is expressed relative to the MetQ cellular pool detected on day 1.
In general terms: A western blot detects proteins with antibodies after separation by electrophoresis.

Converted amounts (≈) assume the structure as drawn. Marks after values point to notes of the source that are not given here.

Consider `CC[C@H]1OC(=O)[C@H](C)[C@@H](O[C@H]2C[C@@](C)(OC)[C@@H](O)[C@H](C)O2)[C@H](C)[C@@H](O[C@@H]2O[C@H](C)C[C@H](N(C)C)[C@H]2O)[C@](C)(O)C[C@@H](C)CN(C)[C@H](C)[C@@H](O)[C@]1(C)O` [Azithromycin], for which the MIC (Etest) with WT FA1090 is 0.032 µg/mL (≈ 0.0427 µM); in experiment [1], 0.032 µg/mL (≈ 0.0427 µM); in experiment [2] it was 0.5^b.

Take `CC1(C)S[C@@H]2[C@H](NC(=O)Cc3ccccc3)C(=O)N2[C@H]1C(=O)O` [Benzylpenicillin]: the MIC (Etest) (against WT FA1090; in experiment [1]; in experiment [2] (unit assumed)) was 0.064 µg/mL (≈ 0.191 µM) in each case.

Turning to `CO/N=C(\C(=O)N[C@@H]1C(=O)N2C(C(=O)O)=C(COC(C)=O)CS[C@H]12)c1csc(N)n1` [Cefotaxime], the figures for the MIC (Etest) (against WT FA1090; in experiment [1]; in experiment [2] (unit assumed)) were 0.004 µg/mL (≈ 0.00878 µM), 0.004 µg/mL (≈ 0.00878 µM) and 0.008 µg/mL (≈ 0.0176 µM), respectively.

As for `CN[C@H](CC(C)C)C(=O)N[C@H]1C(=O)N[C@@H](CC(N)=O)C(=O)N[C@H]2C(=O)N[C@H]3C(=O)N[C@H](C(=O)N[C@H](C(=O)O)c4cc(O)cc(O)c4-c4cc3ccc4O)[C@H](O)c3ccc(c(Cl)c3)Oc3cc2cc(c3O[C@@H]2O[C@H](CO)[C@@H](O)[C@H](O)[C@H]2O[C@H]2C[C@](C)(N)[C@H](O)[C@H](C)O2)Oc2ccc(cc2Cl)[C@H]1O` [Vancomycin], the MIC (Etest) (against WT FA1090; in experiment [1]; in experiment [2] (unit assumed)) was 8 µg/mL (≈ 5.52 µM) throughout.

With Polymyxin B, the MIC (Etest) (against WT FA1090; in experiment [1]; in experiment [2] (unit assumed)) was 64 µg/mL throughout.

B1: rMetQ: untagged recombinant N. gonorrhoeae FA1090 MetQ lacking the lipoprotein signal peptide; sequence in FIG. 8 (SEQ ID NO: 4) (protein, listed as Neisseria gonorrhoeae)
chain: GAMEKDSAPAASAAAPSADNGAAKKEIVFGTTVGDFGDMVKEQIQAELEKKGYTVKLVEFTDYVRPNLALAEGELDINVFQHKPYLDDFKKEHNLDITEAFQVPTAPLGLYPGKLKSLEEVKDGSTVSAPNDPSNFARALVMLNELGWIKLKDGINPLTASKADIAENLKNIKIVELEAAQLPRSRADVDFAVVNGNYAISSGMKLTEALFQEPSFAYVNWSAVKTADKDSQWLKDVTEAYNSDAFKAYAHKRFEGYKYPAAWNEGAAKKLAAA
As to B1, in the experiment with rMetQ, the “Immunoblot intensity of rMetQ band probed with serum” value was 44,405 relative intensity units.
